Patent US20260001914A1, “MACROCYCLIC PEPTIDES TARGETING KRAS” (Merck Sharp & Dohme LLC, priority 2022, published 2026)
*1 amine or outer side, *2 acyl side, *3 side chain or, on linkers, in order; H or OH if unused. Where a SMILES comes first, the peptide text is derived from it. [ ]: non-standard residue; d: D form. NMeNva(5-imidazol-1-yl) = CN[C@@H](CCCn1ccnc1)C(=O)O; Ala(pyrimidin-5-yl) = N[C@@H](Cc1cncnc1)C(=O)O; Phe(2,6-F2) = N[C@@H](Cc1c(F)cccc1F)C(=O)O; X25 = O=C([C@H](Cc1ccc(F)nc1)N[*:1])[*:2]; NMeNva(5,5-F2) = CN[C@@H](CCC(F)F)C(=O)O; X11 = CC(C)(F)CC[C@H](N[*:1])C(=O)[*:2]; X30 = O=C([C@H](Cc1ncccc1F)N[*:1])[*:2]; Nle(5,5-F2) = CC(F)(F)CC[C@H](N)C(=O)O; X35 = CN([C@@H](CCCF)C(=O)[*:2])[*:1]; Phe(2-F) = N[C@@H](Cc1ccccc1F)C(=O)O; NMe3Pal = CN[C@@H](Cc1cccnc1)C(=O)O; X1 = O=C(C12CC(CN[*:1])(C1)C2)[*:2]; NMeCha = CN[C@@H](CC1CCCCC1)C(=O)O; Ala(cPr) = N[C@@H](CC1CC1)C(=O)O; NMeF = CN[C@@H](Cc1ccccc1)C(=O)O; PhLac = O=C(O)[C@@H](O)Cc1ccccc1; 3Pal = N[C@@H](Cc1cccnc1)C(=O)O; Ahp(2) = CCCCC[C@H](N)C(=O)O; Cba = N[C@@H](CC1CCC1)C(=O)O; hLeu = CC(C)CC[C@H](N)C(=O)O; NMeA = CN[C@@H](C)C(=O)O; Nle = CCCC[C@H](N)C(=O)O; Nva = CCC[C@H](N)C(=O)O

Molecular target: phosphorylation levels of ERK1/2 in AsPC-1 (homozygous KRAS-G12D) cells (Homo sapiens, UniProt P01116, G12D)
Sequence (P01116 1-186 G12D): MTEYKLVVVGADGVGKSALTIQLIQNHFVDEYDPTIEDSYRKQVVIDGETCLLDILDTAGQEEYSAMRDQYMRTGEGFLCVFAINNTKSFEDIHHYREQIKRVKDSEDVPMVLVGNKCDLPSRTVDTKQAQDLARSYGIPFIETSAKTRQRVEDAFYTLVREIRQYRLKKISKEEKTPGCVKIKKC
Test: Cellular phospho-ERK assay in AsPC-1 cells (Alpha Screen), assay medium without fetal bovine serum;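 note: signal taken as phospho-ERK over total ERK per well, both detected in one multiplex bead assay, EC50 from four-parameter logistic fit of dose-response curves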
Assay type: cell-based
Settings: phospho-ERK AlphaScreen, 18 h

SMILES	EC50 [nM]
CC(C)CC[C@@H]1NC(=O)[C@H](Cc2ccccc2F)NC(=O)[C@H](CC2CC2)NC(=O)[C@H](Cc2cncnc2)NC(=O)[C@H](CCCF)N(C)C(=O)[C@H](Cc2ccccc2)OC(=O)C23CC(CNC(=O)[C@H](Cc4ccccc4)N(C)C1=O)(C2)C3 [compound 216, cyclo(FLac-NMeNvaF-PyrimAla-cPrA-Phe2F-hL-NMeF-amBCP)] (cyclo([Ala(cPr)][Phe(2-F)][hLeu][NMeF][X1][PhLac][X35][Ala(pyrimidin-5-yl)]))	1230
CC(C)CC[C@@H]1NC(=O)[C@H](Cc2ccccc2F)NC(=O)[C@H](CC2CC2)NC(=O)[C@H](Cc2cncnc2)NC(=O)[C@H](CCC(F)F)N(C)C(=O)[C@H](Cc2ccccc2)OC(=O)C23CC(CNC(=O)[C@H](Cc4ccccc4)N(C)C1=O)(C2)C3 [compound 217, cyclo(FLac-NMeNvaF2-PyrimAla-cPrA-Phe2F-hL-NMeF-amBCP)] (cyclo([Ala(cPr)][Phe(2-F)][hLeu][NMeF][X1][PhLac][NMeNva(5,5-F2)][Ala(pyrimidin-5-yl)]))	1770
C[C@H]1C(=O)N[C@@H](Cc2cncnc2)C(=O)N[C@@H](CC2CCC2)C(=O)N[C@@H](Cc2ccccc2F)C(=O)N[C@@H](CCC(C)(F)F)C(=O)N(C)[C@@H](Cc2ccccc2)C(=O)NCC23CC(C2)(C3)C(=O)O[C@@H](Cc2ccccc2)C(=O)N1C [compound 224, cyclo(FLac-NMcA-PyrimAla-cBuA-Phe2F-Nle3F2-NMeF-amBCP)] (cyclo([Cba][Phe(2-F)][Nle(5,5-F2)][NMeF][X1][PhLac][NMeA][Ala(pyrimidin-5-yl)]))	542
C[C@H]1C(=O)N[C@@H](Cc2cncnc2)C(=O)N[C@@H](CC2CCC2)C(=O)N[C@@H](Cc2ccccc2F)C(=O)N[C@@H](CCC(C)(C)F)C(=O)N(C)[C@@H](Cc2ccccc2)C(=O)NCC23CC(C2)(C3)C(=O)O[C@@H](Cc2ccccc2)C(=O)N1C [compound 225, cyclo(FLac-NMeA-PyrimAla-cBuA-Phe2F-hL3F-NMeF-amBCP)] (cyclo([Cba][Phe(2-F)][X11][NMeF][X1][PhLac][NMeA][Ala(pyrimidin-5-yl)]))	674
CC(C)CC[C@@H]1NC(=O)[C@H](Cc2c(F)cccc2F)NC(=O)[C@H](CC2CCC2)NC(=O)[C@H](Cc2cncnc2)NC(=O)[C@H](C)N(C)C(=O)[C@H](Cc2ccccc2)OC(=O)C23CC(CNC(=O)[C@H](Cc4ccccc4)N(C)C1=O)(C2)C3 [compound 226, cyclo(FLac-NMeA-PyrimAla-cBuA-Phe26F2-hL-NMeF-amBCP)] (cyclo([Cba][Phe(2,6-F2)][hLeu][NMeF][X1][PhLac][NMeA][Ala(pyrimidin-5-yl)]))	355
CCCCC[C@@H]1NC(=O)[C@H](Cc2ccc(OC)cc2)NC(=O)[C@H](CC2CCC2)NC(=O)[C@H](Cc2cccnc2)NC(=O)[C@H](C)N(C)C(=O)[C@H](Cc2ccccc2)OC(=O)C23CC(CNC(=O)[C@H](Cc4ccccc4)N(C)C1=O)(C2)C3 [compound 227, cyclo(FLac-NMeA-3Pal-cBuA-TyrOMe-Ahp-NMeF-amBCP)] (cyclo([3Pal][Cba]Y(Me)[Ahp(2)][NMeF][X1][PhLac][NMeA]))	886
CCCC[C@@H]1NC(=O)[C@H](Cc2ccc(F)nc2)NC(=O)[C@H](C)N(C)C(=O)[C@H](Cc2ccccc2)OC(=O)C23CC(CNC(=O)[C@H](Cc4ccccc4)N(C)C(=O)[C@H](CCCC)NC(=O)[C@H](Cc4ncccc4F)NC1=O)(C2)C3 [compound 228, cyclo(FLac-NMeA-4F3Pal-Nle-2Pal6F-Nle-NMeF-amBCP)] (cyclo([NMeA][X25][Nle][X30][Nle][NMeF][X1][PhLac]))	> 50800
CCCC[C@@H]1NC(=O)[C@H](Cc2cncnc2)NC(=O)[C@H](C)N(C)C(=O)[C@H](Cc2ccccc2)OC(=O)C23CC(CNC(=O)[C@H](Cc4ccccc4)N(C)C(=O)[C@H](CCCC)NC(=O)[C@H](Cc4ncccc4F)NC1=O)(C2)C3 [compound 229, cyclo(FLac-NMeA-PyrimAla-Nle-2Pal6F-Nle-NMeF-amBCP)] (cyclo([NMeA][Ala(pyrimidin-5-yl)][Nle][X30][Nle][NMeF][X1][PhLac]))	48700
CCCC[C@@H]1NC(=O)[C@H](Cc2cncnc2)NC(=O)[C@H](C)N(C)C(=O)[C@H](Cc2ccccc2)OC(=O)C23CC(CNC(=O)[C@H](Cc4ccccc4)N(C)C(=O)[C@H](CCCC)NC(=O)[C@H](Cc4ccccc4F)NC1=O)(C2)C3 [compound 230, cyclo(FLac-NMeA-PyrimAla-Nle-Phe2F-Nle-NMeF-amBCP)] (cyclo([NMeA][Ala(pyrimidin-5-yl)][Nle][Phe(2-F)][Nle][NMeF][X1][PhLac]))	590
CCCC[C@@H]1NC(=O)[C@H](Cc2ccc(F)nc2)NC(=O)[C@H](C)N(C)C(=O)[C@H](Cc2ccccc2)OC(=O)C23CC(CNC(=O)[C@H](Cc4ccccc4)N(C)C(=O)[C@H](CCCC)NC(=O)[C@H](Cc4ccccc4F)NC1=O)(C2)C3 [compound 231, cyclo(FLac-NMeA-4F3Pal-Nle-Phe2F-Nle-NMeF-amBCP)] (cyclo([NMeA][X25][Nle][Phe(2-F)][Nle][NMeF][X1][PhLac]))	589
CCCC[C@@H]1NC(=O)[C@H](Cc2cccnc2)NC(=O)[C@H](C)N(C)C(=O)[C@H](Cc2ccccc2)OC(=O)C23CC(CNC(=O)[C@H](CC4CCCCC4)N(C)C(=O)[C@H](CCCC)NC(=O)[C@H](Cc4ccccc4F)NC1=O)(C2)C3 [compound 232, cyclo(FLac-NMeA-3Pal-Nle-Phe2F-Nle-NMeCha-amBCP)] (cyclo([3Pal][Nle][Phe(2-F)][Nle][NMeCha][X1][PhLac][NMeA]))	> 50800
CCCC[C@@H]1NC(=O)[C@H](Cc2cccnc2)NC(=O)[C@H](CCCn2ccnc2)N(C)C(=O)[C@H](Cc2ccccc2)OC(=O)C23CC(CNC(=O)[C@H](Cc4ccccc4)N(C)C(=O)[C@H](CCCC)NC(=O)[C@H](Cc4ccccc4F)NC1=O)(C2)C3 [compound 233, cyclo(FLac-NMeNvalmid-3Pal-Nle-Phe2F-Nle-NMeF-amBCP)] (cyclo([3Pal][Nle][Phe(2-F)][Nle][NMeF][X1][PhLac][NMeNva(5-imidazol-1-yl)]))	5160
CCCC[C@@H]1NC(=O)[C@H](Cc2ccc(F)nc2)NC(=O)[C@H](C)N(C)C(=O)[C@H](Cc2ccccc2)OC(=O)C23CC(CNC(=O)[C@H](Cc4ccccc4)N(C)C(=O)[C@H](CCC)NC(=O)[C@H](Cc4ccccc4F)NC1=O)(C2)C3 [compound 234, cyclo(FLac-NMeA-4F3Pal-Nle-Phe2F-Nva-NMeF-amBCP)] (cyclo([NMeA][X25][Nle][Phe(2-F)][Nva][NMeF][X1][PhLac]))	> 50800
CCCC[C@@H]1NC(=O)[C@H](Cc2ccc(F)nc2)NC(=O)[C@H](C)N(C)C(=O)[C@H](Cc2ccccc2)OC(=O)C23CC(CNC(=O)[C@H](Cc4cccnc4)N(C)C(=O)[C@H](CCCC)NC(=O)[C@H](Cc4ccccc4F)NC1=O)(C2)C3 [compound 235, cyclo(FLac-NMeA-4F3Pal-Nle-Phe2F-Nle-NMe3Pal-amBCP)] (cyclo([NMe3Pal][X1][PhLac][NMeA][X25][Nle][Phe(2-F)][Nle]))	11800
CCCC[C@@H]1NC(=O)[C@H](Cc2cccnc2)NC(=O)[C@H](C)N(C)C(=O)[C@H](Cc2ccccc2)OC(=O)C23CC(CNC(=O)[C@H](Cc4ccccc4)N(C)C(=O)[C@H](CCCC)NC(=O)[C@H](Cc4ccccc4F)NC1=O)(C2)C3 [compound 236, cyclo(FLac-NMeA-3Pal-Nle-Phe2F-Nle-NMeF-amBCP)] (cyclo([3Pal][Nle][Phe(2-F)][Nle][NMeF][X1][PhLac][NMeA]))	1440
